Assay [1] deals with T1, Glucosylceramide synthase (Homo sapiens, UniProt Q16739).
T1 sequence (Q16739 1-394): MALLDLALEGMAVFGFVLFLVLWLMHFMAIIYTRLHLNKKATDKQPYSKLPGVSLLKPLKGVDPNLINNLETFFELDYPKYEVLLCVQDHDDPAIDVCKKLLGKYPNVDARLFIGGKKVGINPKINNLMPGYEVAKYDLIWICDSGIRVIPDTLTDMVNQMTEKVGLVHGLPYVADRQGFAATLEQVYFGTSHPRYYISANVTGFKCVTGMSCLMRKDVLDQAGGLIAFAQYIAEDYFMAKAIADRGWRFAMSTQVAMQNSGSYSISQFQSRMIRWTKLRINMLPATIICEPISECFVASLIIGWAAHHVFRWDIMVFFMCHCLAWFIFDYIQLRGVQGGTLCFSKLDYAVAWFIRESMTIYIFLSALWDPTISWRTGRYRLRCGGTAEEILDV
The assay is described as follows: Glucocerebroside (glucosylceramide) synthase assay in vitro. In kind it is biochemical. The conditions noted are these: 20 μM. The protocol: Glucocerebrosidase and glucocerebroside synthase assays. In vitro assays for gluccerebrosidase and for cerebroside synthase were performed as described (Abe et al, J. Biochem. (Tokyo) 11:191 (1992)).
In addition to ceramidase, inhibition of cerebroside synthase and sphingomyelin synthase or stimulation of sphingomyelinase or cerebrosidase could result in elevations in endogenous ceramide levels. Therefore, the effects of D- and L-e-MAPP were examined on these enzyme activities in vitro and in cells.

Assay [2] addresses T2, acid ceramidase (Homo sapiens, UniProt Q13510).
T2 sequence (Q13510 22-395): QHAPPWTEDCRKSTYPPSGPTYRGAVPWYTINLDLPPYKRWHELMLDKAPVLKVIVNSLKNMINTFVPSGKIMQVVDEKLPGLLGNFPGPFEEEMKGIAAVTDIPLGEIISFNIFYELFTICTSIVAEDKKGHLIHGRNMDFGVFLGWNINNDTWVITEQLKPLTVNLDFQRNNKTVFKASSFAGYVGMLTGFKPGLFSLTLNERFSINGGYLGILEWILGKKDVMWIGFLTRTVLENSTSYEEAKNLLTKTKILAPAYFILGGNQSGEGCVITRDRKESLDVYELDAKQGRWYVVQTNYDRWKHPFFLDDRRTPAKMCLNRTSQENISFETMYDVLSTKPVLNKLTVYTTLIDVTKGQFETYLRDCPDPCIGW
Kind of assay: Acid ceramidase activity in vitro at pH 4.5. In kind it is biochemical. Details: Ceramidase activity was determined from total homogenates of HL-60 cells; endogenous in cells; host or cells: HL-60 cells. As to conditions: pH 4.5, 50 μM C16-ceramide substrate.
Description: Measurement of ceramidase activity in HL-60 cells. Ceramidase activity in HL-60 cells was measured by a modification of the method of Gatt and Yavin (Methods Enzymol. 14:139 (1969)). Cells were disrupted by sonication in 0.25M sucrose, 1 mM EDTA, and centrifuged at 10,000×g for 10 min after which the supernatant was centrifuged at 100,000×g for 60 min. Ten μl of 1 mM ceramide substrate ([^3 H]C16 -ceramide) was mixed with 100 μl of Triton X-100 (0.1%) in chloroform/methanol, 2:1, and 100 μl of 0.2% sodium cholate in chloroform/methanol, 2:1, after which the solvent was evaporated under N2 at 70° C. To this mixture, 30 μl of water was added and the tubes were heated for 5 s in an 80° C. water bath and then put on ice. Fifty μl of the appropriate buffer depending on desired pH was added followed by 20 μl of 50 mM MgCl2 and 100 μl of cell extract. In experiments using inhibitors, the desired inhibitor was added in ethanol either with the substrate or directly to the final solution. The reaction mixture was incubated for 1 h at 37° C. The ^3 H-fatty acid products of ceramidase were separated by the addition of 2 ml of Dole's solution (isopropyl alcohol, heptane, NaOH), 1.2 ml of heptane, and 1 ml of water. After vortexing and centrifugation, the upper phase was discarded and the lower phase was washed twice with heptane and the upper phase discarded each time. […]

Assay [3] addresses T2, acid ceramidase. As to conditions: Sugita et al, Biochim. Biophys. Acta 398:125 (1975); read-out: previously reported Ki; cited from earlier work.
Assay [4] relates to alkaline ceramidase. The assay is described as follows: Alkaline ceramidase activity in vitro at pH 9.0. In kind it is biochemical, human. As to conditions: final concentrations up to 50 μM. The method, then: Measurement of ceramidase activity in HL-60 cells. Ceramidase activity in HL-60 cells was measured by a modification of the method of Gatt and Yavin (Methods Enzymol. 14:139 (1969)). Cells were disrupted by sonication in 0.25M sucrose, 1 mM EDTA, and centrifuged at 10,000×g for 10 min after which the supernatant was centrifuged at 100,000×g for 60 min. Ten μl of 1 mM ceramide substrate ([^3 H]C16 -ceramide) was mixed with 100 μl of Triton X-100 (0.1%) in chloroform/methanol, 2:1, and 100 μl of 0.2% sodium cholate in chloroform/methanol, 2:1, after which the solvent was evaporated under N2 at 70° C. To this mixture, 30 μl of water was added and the tubes were heated for 5 s in an 80° C. water bath and then put on ice. Fifty μl of the appropriate buffer depending on desired pH was added followed by 20 μl of 50 mM MgCl2 and 100 μl of cell extract. In experiments using inhibitors, the desired inhibitor was added in ethanol either with the substrate or directly to the final solution. The reaction mixture was incubated for 1 h at 37° C. The ^3 H-fatty acid products of ceramidase were separated by the addition of 2 ml of Dole's solution (isopropyl alcohol, heptane, NaOH), 1.2 ml of heptane, and 1 ml of water. After vortexing and centrifugation, the upper phase was discarded and the lower phase was washed twice with heptane and the upper phase discarded each time. Finally, 1 ml of 1N H2 SO4, and 2 ml of heptane were added, and after vortexing and centrifugation the upper phase was transferred for counting by liquid scintillation.
In order to evaluate the interactions of D- and L-e-MAPP with ceramidase, in vitro studies we conducted using cytosolic and membrane fractions from HL-60 cells. Initially, ceramidase activity was examined for pH dependence using tritium-labeled C16 -ceramide as substrate. […] The alkaline ceramidase activity was very similar to that described in fibroblasts and cerebellar tissue (Sugita et al, Biochim. Biophys. Acta 398:125 (1975), Wertz and Downing, FEBS Lett. 268:110 (1990)). In initial studies, the ability of this ceramidase to utilize D-e- and L-e-MAPP as substrates was investigated. […] These studies corroborate the cellular metabolism studies showing that L-e-MAPP is a substrate for ceramidase in vitro and in cells.
Next, the ability of D- and L-e-MAPP to interfere with hydrolysis of C16 -ceramide by ceramidase at pH 4.5 and 9.0 was evaluated. Inhibition of ceramidase activity by D-e-MAPP was compared to that by N-oleoylethanolamine, a putative inhibitor of acid ceramidase (Sugita et al, Biochim. Biophys. Acta 398:125 (1975)). […] The effects of N-oleoylethanolamine are consistent with the previously reported Ki of 700 μM (Sugita et al, Biochim. Biophys. Acta 398:125 (1975)). […] In contrast, D-e-MAPP was a relatively poor inhibitor of acid ceramidase with less than 10% inhibition of acid ceramidase at 50 μM (FIG. 6C).

For assay [5], the system named is HL-60 human myelocytic leukemia cells. Kind of assay: HL-60 cell proliferation (cell counting). In kind it is cell-based. As to conditions: HL-60, 3 μM D-MAPP plus fumonisin B1, 48 h. The protocol: Proliferation and cell cycle studies. HL-60 human myelocytic leukemia cells (obtained from the American Type Culture Collection) were grown in RPMI 1640 medium containing 10 fetal calf serum at 37° C. in 5% CO2 incubator. For proliferation and cell cycle studies, cells were resuspended at a density of 2×10^5 cells/ml in serum-free media containing insulin (5 mg/liter) and transferrin (5 mg/liter) and sodium selenite (5 μg/liter) for 2-4 h. Cells were then treated with the indicated compounds. Ethanol concentration was always maintained at less than 0.1%. Cell proliferation was determined by counting cells using a hemacytometer, cell viability was evaluated by trypan blue dye exclusion, and cell cycle analysis was determined by propidium iodide flow cytometry as described (Chao et al, J. Biol. Chem. 267:23459 (1992)).
In structure-function analysis of ceramide-mediated growth suppression using amides of phenylaminoalcohols, D- and L-erythro-MAPP were employed. In these studies, HL-60 cells were treated with 5 μM of either D-e-MAPP or L-e-MAPP, and growth was determined at the indicated time points (FIG. 2A).
Studies were conducted examining the uptake and metabolism of D- and L-MAPP. In the first set of studies, the effect of duration of exposure of HL-60 cells to D-e-MAPP on the bioactivity of the molecule was determined. D-e-MAPP added to cells could be washed off by repeated sedimentation and washing of cells. Thus, after five cycles of washing, less than 10% of D-MAPP remained associated with the cell pellet-compared to unwashed cells (FIG. 5A).

In assay [6] the test system is ceramide-activated protein phosphatase (CAPP). The assay is described as follows: CAPP serine/threonine phosphatase activity in vitro. In kind it is biochemical. The conditions noted are these: myelin basic protein phosphorylated by protein kinase A as substrate.

pIC50, pKi: −log10 of the molar value.

One may read the pIC50 as −log10 of the IC50, conventionally taken in molar units. Higher therefore signals a small IC50. What is called pKi is the Ki on a negative log10 scale, so that one unit is a factor of ten.

Take `CCCCCCCCCCCCCC(=O)NC(CN1CCOCC1)C(O)c1ccccc1` (stereo not shown) [PMMP, reference compound]: the Glucosylceramide synthase activity in assay [1] (Control 1.009 ± 0.0424) was 0.208 ± 0.008 nmol/h/mg protein. Also, the “inhibition of cerebroside synthase activity” value in assay [1] (Table I) was “significant inhibition”.
Turning to `CCCCCCCC/C=C\CCCCCCCC(=O)NCCO` [N-oleoylethanolamine, reference compound], the pIC50 in assay [2] is roughly 3.30. In addition, the negative-log Ki (pKi) in assay [3] is 3.15. In assay [4], the “inhibition of alkaline ceramidase in vitro” value is “less than 10%”.
As to `CCCCC(C)C(OC(=O)CC(CC(=O)O)C(=O)O)C(CC(C)CC(O)CCCCC(O)CC(O)C(C)N)OC(=O)CC(CC(=O)O)C(=O)O` (stereo not shown) [fumonisin B1, reference compound], in assay [5], the “effect on growth suppression by D-e-MAPP” value was “did not inhibit the effects of D-e-MAPP on growth”.
On to `CCCCCCCCCCCCC/C=C/[C@@H](O)[C@H](CO)NC(=O)CCCCC` [C6 -ceramide, reference compound], for which the “activation of CAPP in vitro” value in assay [6] is recorded as “concentration-dependent stimulation of activity”.

Source of the values: patent publication US5851782A, “Inhibitors of ceramidase” (Duke University, priority 1996, dated 1998).
